Reference: patent US6680300B2 (Board of Regents, The University of Texas System, priority 1998, dated 2004)
In brackets after ≈: the same amount, converted by molar mass. Several values for one entry are separate records, joined by “and”; a condition that tells them apart may be missing. Equal entries are not always repeated.

How the values were obtained:
[1] = test system: human carcinoma sensitive (KB) cells; experiment: MTT cytotoxicity assay, sensitive KB cells; assay type: cell-based; settings: 72 hours incubation
Method: (§1) Compounds synthesized using the methods described above were tested using a standard MTT assay (Green et al., 1984) against human carcinoma sensitive (KB) and multi-drug-resistant (KBV1) cells and MCF-7 and MCF-7/VP-16 resistant cells characterized as having the MRP (multi-drug resistant associated protein) phenotype. The use of an MTT assay using these cells is recognized as an accepted assay for anti-tumor activity by those in the field.
(§2) In vitro drug cytotoxicities against human breast carcinoma wild-type MCF-7 and MRP-resistant MCF-7/VP-16 cells were assessed by using the MTT reduction assay, as previously reported (Green et al., 1984). The MTT dye was obtained from Sigma Chemical Co. (St. Louis, Mo.). Cells were plated in 96-well microassay culture plates (10^4 cells/well) and grown overnight at 37° C. in a 5% CO2 incubator. Drugs were then added to the wells to achieve a final drug concentration ranging from 0.1 to 50 μg/mL. Four wells were used for each concentration. Control wells were prepared by adding appropriate volumes of calcium- and magnesium-free PBS (pH 7.4). Wells containing culture medium without cells were used as blanks. The plates were incubated at 37° C. in a 5% CO2 incubator for 72 hours. Upon completion of the incubation, 20 μL of stock MTT dye solution (5 mg/mL) was added to each well. After a 4-hour incubation, 100 μL of buffer containing 50% N,N-dimethylformamide and 20% SDS was added to solubilize the MTT formazan. Complete solubilization was achieved by placing the plate in a mechanical shaker for 30 minutes at room temperature. The optical density of each well was then measured with a microplate spectrophotometer at a wavelength of 570 nm. The percent cell viability was calculated by the following equation:
(§3) % cell viability=(OD treated wells/OD control wells)×100
where OD is the mean optical density from four determinations. The percent cell viability values were plotted against the drug concentrations used, and the ID50 was calculated from the curve. Cytotoxicity experiments were repeated at least three times. […]

[2] = test system: human breast carcinoma wild-type MCF-7 cells; experiment: MTT cytotoxicity assay, wild-type MCF-7 cells; assay type: cell-based; settings: 72 hours incubation
Method: as §1
(§4) In vitro drug cytotoxicities against human breast carcinoma wild-type MCF-7 and MRP-resistant MCF-7/VP-16 cells were assessed by using the MTT reduction assay, as previously reported (Green et al., 1984). The MTT dye was obtained from Sigma Chemical Co. (St. Louis, Mo.). Cells were plated in 96-well microassay culture plates (10^4 cells/well) and grown overnight at 37° C. in a 5% CO2 incubator. Drugs were then added to the wells to achieve a final drug concentration ranging from 0.1 to 50 μg/mL. Four wells were used for each concentration. […] The optical density of each well was then measured with a microplate spectrophotometer at a wavelength of 570 nm. The percent cell viability was calculated by the following equation: […]
(§5) where OD is the mean optical density from four determinations. The percent cell viability values were plotted against the drug concentrations used, and the ID50 was calculated from the curve. […]

[3] = test system: MRP-resistant MCF-7/VP-16 cells; experiment: MTT cytotoxicity assay, MRP-resistant MCF-7/VP-16 cells; assay type: cell-based, human
Method: as §1, §4, §5

[4] = test system: MCF-7/dox cell line which overexpresses MDR1 gene; experiment: MTT cytotoxicity assay, MCF-7/dox cells; assay type: cell-based, human; settings: for RI (resistance index) MCF-7/dox vs MCF-7: MCF-7/dox relative to MCF-7; for ID50 MCF-7/dox: MTT, 72 hours incubation, MCF-7/dox cells
Method: [Worded in the source for another cell line; this cell line is reported under the same test.] as §1, §2, §3
(§6) where OD is the mean optical density from four determinations. The percent cell viability values were plotted against the drug concentrations used, and the ID50 was calculated from the curve. Cytotoxicity experiments were repeated at least three times.
(§7) Drug resistance, both de novo and acquired, by human tumors is currently a major factor limiting the effectiveness of chemotherapy. […] Using this system, the inventors evaluate a drug's cytotoxic potential against human tumors and at the same time identify compounds that might have unique activity against MDR tumors (Priebe et al., 1993).

[5] = test system: several cell lines; experiment: In vitro potency comparison in several cell lines; assay type: cell-based; settings: in vitro cytotoxicity
[6] = test system: multi-drug-resistant (KBV1) carcinoma cells overexpressing MDR1 (P-gp); experiment: MTT cytotoxicity assay, multi-drug-resistant KBV1 cells; assay type: cell-based, human; settings: for RI (resistance index) KBV1 vs KB: KBV1 relative to KB; for ID50 KBV1: MTT, 72 hours incubation, KBV1 cells
Method: as §1, §2, §3, §6, §7

| SMILES | ID50 KB [1] | ID50 MCF-7 [2] | RI (resistance index) MCF-7/VP-16 vs MCF-7 ([3]; MCF-7/VP-16 relative to MCF-7) | ID50 MCF-7/VP-16 ([3]; MTT, 72 hours incubation, MCF-7/VP-16 cells) [ng/mL] | RI (resistance index) MCF-7/dox vs MCF-7 [4] | ID50 MCF-7/dox [4] | potency relative to daunorubicin analog WP809 [5] | RI (resistance index) KBV1 vs KB [6] | ID50 KBV1 [6] |
| --- | --- | --- | --- | --- | --- | --- | --- | --- | --- |
| COc1cccc2c1C(=O)c1c(O)c3c(c(O)c1C2=O)C[C@@](O)(C(=O)CO)C[C@@H]3O[C@H]1C[C@H]2[C@H](OC3CCCN32)[C@H](C)O1 (stereo partly shown) [WP836] | 0.65 ± 0.14 ng/mL and 0.5 ± 0.06 ng/mL | 0.43 ± 0.06 ng/mL (≈ 0.722 nM) | 1 | 0.43 ± 0.06 (≈ 0.722 nM) | 1.56 | 0.67 ± 0.15 ng/mL (≈ 1.12 nM) | several fold |  |  |
| COc1cccc2c1C(=O)c1c(O)c3c(c(O)c1C2=O)C[C@@](O)(C(=O)CO)C[C@@H]3O[C@H]1C[C@H](N)[C@H](O)[C@H](C)O1 [DOX, doxorubicin] | 340 ± 100 ng/mL (≈ 626 nM) | 300 ± 170 ng/mL and 240 ± 50 ng/mL |  |  | >333 and >416 | 100,000 ng/mL and >100,000 ng/mL |  | >294 | >100,000 ng/mL |
| COc1cccc2c1C(=O)c1c(O)c3c(c(O)c1C2=O)C[C@@](O)(C(C)=O)C[C@@H]3O[C@H]1C[C@H](N)[C@H](O)[C@H](C)O1 [DNR, daunorubicin] | 220 ± 10 ng/mL (≈ 417 nM) |  |  |  |  |  |  | 45 | 10,000 ± 0 ng/mL |
